Reference: PubChem BioAssay (NCI)
“And” between values parts separate entries of the source, which are not always exact repeats. Equal values may be shown once.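 1) Cells in 96-well plates. 2) Compound, 48 h, 5 concentrations. 3) Linear interpolation between surrounding doses. 4) Unreached endpoint = highest concentration. The concentration for 50% growth inhibition is given as GI50. TGI marks complete inhibition of growth.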

Columns and labels:
Test in all cases: growth of human tumour cells (NCI), 48 h
786-0 renal = tested on: 786-0 renal
ACHN renal = tested on: ACHN renal
A498 renal = tested on: A498 renal
MCF7 breast = tested on: MCF7 breast
SK-MEL-2 melanoma = tested on: SK-MEL-2 melanoma
NCI-H522 lung = tested on: NCI-H522 lung
MDA-MB-435 = tested on: MDA-MB-435
SNB-75 CNS = tested on: SNB-75 CNS
COLO 205 colon = tested on: COLO 205 colon
OVCAR-8 ovarian = tested on: OVCAR-8 ovarian

Row | SMILES | TGI (786-0 renal) | TGI (ACHN renal) | TGI (A498 renal) | TGI (MCF7 breast) | TGI (SK-MEL-2 melanoma) | TGI (NCI-H522 lung) | TGI (MDA-MB-435) | TGI (SNB-75 CNS) | TGI (COLO 205 colon) | TGI (OVCAR-8 ovarian) | GI50 (786-0 renal) | GI50 (ACHN renal) | GI50 (A498 renal) | GI50 (MCF7 breast) | GI50 (SK-MEL-2 melanoma) | GI50 (NCI-H522 lung) | GI50 (MDA-MB-435) | GI50 (SNB-75 CNS) | GI50 (COLO 205 colon) | GI50 (OVCAR-8 ovarian)
1 | O=C(O)c1cccc(/C=C/c2ccccc2)c1 | > 100 µM | > 100 µM | > 100 µM | > 100 µM | > 100 µM | > 100 µM | > 100 µM | > 100 µM | > 100 µM | > 100 µM | – | – | – | – | – | – | – | – | – | –
2 | COC(=O)c1ccc2c(c1)C(=O)c1c-2n(CCCN)c(=O)c2cc(OC)c(OC)cc12 | 28.1 µM | 29.8 µM | 36.2 µM | 29.3 µM | > 84.5 µM | 37.2 µM | 46.2 µM | 32.9 µM | 27.7 µM | > 55 µM | 9.72 µM | 14.8 µM | 17.4 µM | 8.79 µM | 31.2 µM | 17.1 µM | 21.6 µM | 16.5 µM | 12.4 µM | 14.5 µM
3 | COc1ccc(/C=C\c2cc(OC)c(OC)c(OC)c2)c(NS(=O)(=O)c2ccc(Cl)cc2)c1O | 24.8 µM | 30.7 µM | 0.422 µM | > 100 µM | 21.3 µM | 0.607 µM | 0.0525 µM | 17.4 µM | 5.76 µM | 80.6 µM | 0.572 µM | 0.0838 µM | 0.0229 µM | 0.0384 µM | 0.0659 µM | 0.0848 µM | 0.0222 µM | 0.0331 µM | 1.74 µM | 0.294 µM
4 | C/C(=C(/c1ccc(O)cc1)c1ccc(Cl)cc1)c1ccccc1 | 1.56 µM | 1.8 µM | 5.06 µM | 2.07 µM | 1.81 µM | 2.8 µM | 1.18 µM | 1.96 µM | 5.96 µM | 3.21 µM | 0.558 µM | 0.628 µM | 1.54 µM | 0.767 µM | 0.659 µM | 0.739 µM | 0.534 µM | 0.629 µM | 2.44 µM | 0.9 µM
5 | Cc1cnc(Nc2ccc(OCCN3CCCC3)cc2)nc1Nc1cccc(S(=O)(=O)NC(C)(C)C)c1 | 3.95 µM and 2.86 µM | 1.89 µM and 3.49 µM | 0.869 µM and 1.57 µM | 9.16 µM and > 10 µM | 2.68 µM and > 10 µM | 1.35 µM and 3.15 µM | 11.9 µM and > 10 µM | 0.686 µM and 1.76 µM | 0.859 µM and 2.55 µM | 9.03 µM and > 10 µM | 0.197 µM and 1.01 µM | 0.0927 µM and 0.733 µM | 0.144 µM and 0.385 µM | 0.143 µM and 0.775 µM | 0.17 µM and 0.759 µM | 0.053 µM and 0.371 µM | 0.121 µM and 1.14 µM | 0.0852 µM and 0.286 µM | 0.72 µM | 0.666 µM and 2.66 µM
6 | C[C@]12CC[C@@H](OC(=O)N(CCCl)N=O)C[C@@H]1CC[C@@H]1[C@@H]2CC[C@]2(C)C(=O)CC[C@@H]12 | 16.7 µM | 13.8 µM | 4.29 µM | 19.2 µM | 38 µM | 30.8 µM | 44.1 µM | 30.5 µM | 3.88 µM | 28.5 µM | 0.891 µM | 0.487 µM | 1.68 µM | 1.38 µM | 17.1 µM | 9.06 µM | 10.6 µM | 2.74 µM | 1.6 µM | 7.21 µM
7 | Oc1c(Cl)cc(Cl)cc1Sc1cc(Cl)cc(Cl)c1O | 10.4 µM and 7.85 µM | 10.7 µM and 11.3 µM | 5.52 µM and 5.19 µM | 10.5 µM and 10.2 µM | 5.4 µM and 2.91 µM | 7.03 µM | 12.4 µM and 9 µM | 14 µM and 7.61 µM | 5.23 µM and 3.03 µM | 12.6 µM and 11.4 µM | 3.22 µM and 2.83 µM | 2.92 µM and 3.27 µM | 1.81 µM and 1.87 µM | 3.06 µM and 2.88 µM | 2.62 µM and 1.07 µM | 2.49 µM | 3.42 µM and 2.72 µM | 3.47 µM and 2.57 µM | 2.22 µM and 1.67 µM | 3.28 µM and 2.85 µM
